The values that follow come from US8609644B2, “Amino derivatives of androstanes and androstenes as medicaments for cardiovascular disorders” (priority 2006, dated 2013).

Structures can show the parent of a compound that is named as a salt. Where two headings read alike, the source gives them in different places.

By IC50 is commonly meant the concentration needed to halve the response being measured.

The target in one series is Na+, K+-ATPase (Canis lupus familiaris, UniProt P50997). Description: biochemical. Set-up: species or system dog.
The next series deals with anesthetized guinea-pig. Description: Inotropic effect and lethal dose, slow intravenous infusion (over 90 minutes) in anesthetized guinea-pig. The settings on record: for % decrease from Emax after 20 min from the end of the infusion: duration of the inotropic effect; for Maximum dose infused: maximum dose infused in the survived animals; for Emax % increase in +dP/dTmax: maximum increase in contractile force; for Emax % increase in +dP/dTmax / Dead/treated / ED80 (inotropic potency, dose increasing +dP/dTmax by 80%) / EDmax (dose inducing maximum positive inotropic effect): slow i.v. infusion over 90 minutes; for ED80 / ED (max) / Emax: Cavia porcellus, iv, 1.5 h; for ED80: read-out: ED80 (inotropic potency, dose increasing +dP/dTmax by 80%); for ED (max): read-out: EDmax (dose inducing maximum positive inotropic effect); for Emax: read-out: Emax % increase in +dP/dTmax; for Lethal dose/ED80 (safety ratio): calculated in the died animals.

A further series deals with fresh rat hepatocytes. Description: Metabolism in fresh rat hepatocytes. The settings on record: fresh rat hepatocytes; test item nominal concentration 45 μM.
The mark [1] stands for this setting: read-out: Na+, K+-ATPase Inhibition IC50.
Setting [2] is: dog kidney enzyme, read-out: Na+, K+-ATPase Inhibition IC50.

For `C[C@]12CC[C@@H](/C=C\CCCN)CC1/C(=N/O)C[C@@H]1[C@@H]2CC[C@]2(C)C(=O)CC[C@@H]12.O=C(O)/C=C/C(=O)O` (stereo partly drawn) [I-dg, 3α-(5-Aminopent-1-(Z)-enyl)-6-(E)-hydroxyiminoandrostan-17-one fumarate], the IC50 at Na+, K+-ATPase (setting [1]) was determined as 390 nM. Further, in the series on anesthetized guinea-pig, the “% decrease from Emax after 20 min from the end of the infusion” value (from here on “% decrease from Emax after 20 min”) stood at 29%, the Maximum dose infused came to 12.9 µmol/kg, the “Emax % increase in +dP/dTmax” value is 105% and the Dead/treated is on record as 0/3. Further, in the series with anesthetized guinea-pig, the “ED80 (inotropic potency, dose increasing +dP/dTmax by 80%)” value was found to be 8.62 µmol/kg and the “EDmax (dose inducing maximum positive inotropic effect)” value worked out at 11.4 µmol/kg.

Turning to `CC12CCC3C(CC(CCO)C4CC(=NOCCN)CCC43C)C1CCC2=O` (mixture of isomers) [I-am, (E,Z) 3-(2-Aminoethoxyimino)-6α-(2-hydroxyethyl)androstan-17-one hydrochloride], the IC50 on Na+, K+-ATPase (setting [2]) was 320 nM. In the series on anesthetized guinea-pig, the ED80 amounted to 2.5 µmol/kg, the ED (max) was 17.2 µmol/kg, the Emax turned out to be 238% and the “Lethal dose/ED80 (safety ratio)” value is listed as 22.7. In the series with anesthetized guinea-pig, the “% decrease from Emax after 20 min” value turned out to be 17%, the Maximum dose infused was determined as 50.5 µmol/kg and the Dead/treated is listed as 2/3.

For `C=C1C[C@H]2[C@@H]3CCC(=O)[C@@]3(C)CC[C@@H]2[C@@]2(C)CCC(=NOCCN)C[C@]12O` (mixture of isomers) [I-bq, (E,Z) 3-(2-Aminoethoxyimino)-5α-hydroxy-6-methylenandrostane-17-one hydrochloride], the IC50 against Na+, K+-ATPase (Na+, K+-ATPase Inhibition IC50) worked out at 99 nM. Moreover, in the series with anesthetized guinea-pig, the ED80 turned out to be 5.87 µmol/kg, the ED (max) amounted to 15.7 µmol/kg, the Emax worked out at 173% and the “% decrease from Emax after 20 min” value amounted to 10%. Further, in the series with anesthetized guinea-pig, the Maximum dose infused stood at 25.3 µmol/kg and the Dead/treated is 0/3.

Turning to `CNCCCON=C1CC[C@@]2(C)[C@H](C1)[C@@H](CO)C[C@@H]1[C@@H]2CC[C@]2(C)C(=O)CC[C@@H]12` (mixture of isomers) [I-cl, (E,Z) 3-(3-N-Methylaminopropoxyimino)-6α-hydroxymethylandrostan-17-one hydrochloride], the IC50 at Na+, K+-ATPase (setting [2]) stood at 690 nM. Also, in the series on anesthetized guinea-pig, the ED80 was determined as 1.54 µmol/kg, the ED (max) amounted to 8.95 µmol/kg, the Emax came to 263% and the “Lethal dose/ED80 (safety ratio)” value was 27.6. In the series with anesthetized guinea-pig, the Maximum dose infused was determined as 42.5 µmol/kg and the Dead/treated was 2/2.

As for `CC1CC2C3CCC(=O)C3(C)CCC2C2(C)CCC(=NOCCN)CC12` (single isomer, unassigned) [I-ba, (E,Z) 3-(2-Aminoethoxyimino)-6α-methylandrostan-17-one hydrochloride], on Na+, K+-ATPase (Na+, K+-ATPase Inhibition IC50), inhibition was half-maximal at 300 nM (IC50). In the series on anesthetized guinea-pig, the ED80 is 3.09 µmol/kg, the ED (max) was 5.78 µmol/kg, the Emax amounted to 203% and the “% decrease from Emax after 20 min” value worked out at 100%. Also, in the series with anesthetized guinea-pig, the Maximum dose infused turned out to be 6.3 µmol/kg and the Dead/treated is listed as 0/3.

Regarding `CC12CCC3C(C(=O)CC4CC(=NOCCN)CCC43C)C1CCC2=O` (mixture of isomers) [I-br, (E,Z) 3-(2-Aminoethoxyimino)androstane-7,17-dione fumarate], at Na+, K+-ATPase (Na+, K+-ATPase Inhibition IC50), inhibition was half-maximal at 210 nM (IC50). Further, in the series with anesthetized guinea-pig, the ED80 was 1.62 µmol/kg, the ED (max) worked out at 13.5 µmol/kg, the Emax was determined as 264% and the “Lethal dose/ED80 (safety ratio)” value is 32.4. In the series on anesthetized guinea-pig, the “% decrease from Emax after 20 min” value came to 100%, the Maximum dose infused turned out to be 50.4 µmol/kg and the Dead/treated is 2/5.

`C[C@]12CC[C@H](OC(=O)CCN)CC1/C(=N/O)C[C@@H]1[C@@H]2CC[C@]2(C)C(=O)CC[C@@H]12.Cl` (stereo partly drawn) [I-dm, 3β-(3-Aminopropionyloxy)-6-(E)-hydroxyiminoandrostan-17-one hydrochloride]: the “% of compound metabolized after 60 minutes” value in the series on fresh rat hepatocytes is 71%.

Consider `CNCCCON=C1CCC2(C)C(C1)C(NC=O)CC1C3CCC(=O)C3(C)CCC12` (mixture of isomers) [I-co, (E,Z) 3-(3-N-Methylaminopropoxyimino)-6α-formamidoandrostan-17-one hydrochloride], for which, on Na+, K+-ATPase (setting [2]), the IC50 was 1100 nM. Besides, in the series with anesthetized guinea-pig, the ED80 stood at 0.93 µmol/kg, the ED (max) was found to be 2.79 µmol/kg, the Emax stood at 177% and the “Lethal dose/ED80 (safety ratio)” value is on record as 47.4. Moreover, in the series on anesthetized guinea-pig, the Maximum dose infused came out at 44.1 µmol/kg and the Dead/treated was 2/2.

With `C#C[C@H]1C[C@@H]2[C@H](CC[C@]3(C)C(=O)CC[C@@H]23)[C@@]2(C)CCC(=NOCCN)C[C@H]12` (mixture of isomers) [I-bd, (E,Z) 3-(2-Aminoethoxyimino)-6α-ethynylandrostan-17-one hydrochloride], the IC50 against Na+, K+-ATPase (Na+, K+-ATPase Inhibition IC50) is 200 nM. Also, in the series with anesthetized guinea-pig, the ED80 was 4.59 µmol/kg, the ED (max) amounted to 9.89 µmol/kg, the Emax was found to be 163% and the “% decrease from Emax after 20 min” value is reported as 16%. Besides, in the series with anesthetized guinea-pig, the Maximum dose infused was 12.8 µmol/kg and the Dead/treated is 0/3.

As for `CC12CCC3C(C(=NO)CC4CC(=NOCCN)CCC43C)C1CCC2=O` (mixture of isomers) [I-bs, (E,Z)-3-(2-Aminoethoxyimino)-7-(E)-hydroxyiminoandrostane-17-one fumarate], the “% of compound metabolized after 60 minutes” value in the series with fresh rat hepatocytes is 15%.

As to `C[C@]12CC[C@H]3[C@@H](CC[C@@]4(O)CC(=NOCCN)CC[C@]34C)[C@@H]1CCC2=O` (mixture of isomers) [I-ad, (E,Z) 3-(2-Aminoethoxyimino)-5α-hydroxyandrostan-17-one fumarate], the half-maximal inhibitory concentration (IC50) against Na+, K+-ATPase (Na+, K+-ATPase Inhibition IC50) worked out at 540 nM. In addition, in the series on anesthetized guinea-pig, the ED80 turned out to be 5.14 µmol/kg, the ED (max) is 22.5 µmol/kg, the Emax came to 202% and the “% decrease from Emax after 20 min” value was 100%. For the same compound, in the series on anesthetized guinea-pig, the Maximum dose infused amounted to 50.1 µmol/kg and the Dead/treated is given as 0/3.

Turning to `CC1CC2C3CCC(=O)C3(C)CCC2C2(C)CCC(=NOCCN)CC12` (single isomer, unassigned) [I-az, (E,Z) 3-(2-Aminoethoxyimino)-6β-methylandrostan-17-one hydrochloride], the IC50 on Na+, K+-ATPase (Na+, K+-ATPase Inhibition IC50) came out at 6000 nM.

Regarding `CC12CCC3C(CC(CO)C4CC(=NOCCN)CCC43C)C1CCC2=O` (single isomer, unassigned) [I-ao, (E,Z) 3-(2-Aminoethoxyimino)-6α-hydroxymethylandrostan-17-one hydrochloride], the IC50 on Na+, K+-ATPase (setting [2]) is 180 nM. In the series with anesthetized guinea-pig, the ED80 was determined as 1.8 µmol/kg, the ED (max) was determined as 7.37 µmol/kg, the Emax came to 166% and the “% decrease from Emax after 20 min” value was 100%. Moreover, in the series with anesthetized guinea-pig, the Maximum dose infused turned out to be 12.6 µmol/kg and the Dead/treated was 0/3.

For the compound `CC12CCC3C(CC(C(N)=O)C4CC(=NOCCN)CCC43C)C1CCC2=O` (mixture of isomers) [I-at, (E,Z) 3-(2-Aminoethoxyimino)-6α-carbamoylandrostan-17-one fumarate], at Na+, K+-ATPase (setting [1]), the IC50 amounted to 630 nM.

For `C[C@]12CCC(=NOCCN)CC1C1(CC1)C[C@@H]1[C@@H]2CC[C@]2(C)C(=O)CC[C@@H]12` (stereo partly shown) [I-bl, E,Z) 3-(2-Aminoethoxyimino)-6-(spirocyclopropane)androstane-17-one hydrochloride], the IC50 at Na+, K+-ATPase (setting [1]) is 850 nM.

As to `CNCCCON=C1CCC2(C)C(C1)C(C(=O)OC)CC1C3CCC(=O)C3(C)CCC12` (mixture of isomers) [I-cm, (Z,E) 3-(3-N-Methylaminopropoxyimino)-6α-methoxycarbonylandrostan-17-one hydrochloride], at Na+, K+-ATPase (setting [2]), the IC50 worked out at 4000 nM.

As to `CON=C1CC2C3CCC(=O)C3(C)CCC2C2(C)CCC(=NOCCN)CC12` (mixture of isomers) [I-aw, (E,Z)-3-(2-Aminoethoxyimino)-6-(E)-methoxyiminoandrostan-17-one hydrochloride], the IC50 on Na+, K+-ATPase (setting [2]) is 17 nM. In the series on anesthetized guinea-pig, the ED80 turned out to be 2.35 µmol/kg, the ED (max) turned out to be 5.77 µmol/kg, the Emax stood at 183% and the “% decrease from Emax after 20 min” value came out at 100%. For the same compound, in the series on anesthetized guinea-pig, the Maximum dose infused came to 12.7 µmol/kg and the Dead/treated is 0/5.

In turn, `C=C1C[C@@H]2[C@H](CC[C@]3(C)C(=O)CC[C@@H]23)[C@@]2(C)CC/C(=N\OCCCNC)C[C@H]12` [I-cj, (E) 3-(3-N-Methylaminopropoxyimino)-6-methyleneandrostan-17-one fumarate] had an IC50 against Na+, K+-ATPase (Na+, K+-ATPase Inhibition IC50) of 380 nM.

For the compound `C[C@]12CC[C@H]3[C@@H](C/C(=N\O)[C@@]4(O)CC(=NOCCN)CC[C@]34C)[C@@H]1CCC2=O.O=C(O)/C=C/C(=O)O` [I-bo, (E,Z)-3-(2-Aminoethoxyimino)-5α-hydroxy-6-(E)-hydroxyiminoandrostane-17-one fumarate], the IC50 on Na+, K+-ATPase (setting [1]) was 79 nM. In the series with anesthetized guinea-pig, the “% decrease from Emax after 20 min” value amounted to 82%, the Maximum dose infused was found to be 12.5 µmol/kg, the “Emax % increase in +dP/dTmax” value was determined as 214% and the Dead/treated is 0/3. Also, in the series with anesthetized guinea-pig, the “ED80 (inotropic potency, dose increasing +dP/dTmax by 80%)” value was 1.30 µmol/kg and the “EDmax (dose inducing maximum positive inotropic effect)” value was 4.86 µmol/kg.

Regarding `C[C@]12CC[C@H]3[C@@H](C[C@@H](C#N)[C@@]4(O)CC(=NOCCN)CC[C@]34C)[C@@H]1CCC2=O` (mixture of isomers) [I-ae, (E,Z) 3-(2-Aminoethoxyimino)-5α-hydroxy-6β-cyanoandrostane-17-one fumarate], the IC50 at Na+, K+-ATPase (setting [2]) stood at 11000 nM.
